Consider 2 molecules from ChEMBL document CHEMBL1147616, “DNA binding of a short lexitropsin” (Bioorg Med Chem Lett, 2004).

The test system of this experiment is Nucleic Acid. The experiment in a line: Compound was evaluated for its binding activity to the DNA AT-rich sites. The class given is nucleic-acid assay.

In turn, `CN(C)CCCNC(=O)c1cc(NC(=O)c2cc(NC(=O)c3cc(NC=O)cn3C)cn2C)cn1C` came in with a Binding activity of 3 µM.

In turn, `CC(C)n1cc(NC(=O)c2cc(NC=O)cn2C)cc1C(=O)Nc1cc(C(=O)NCCCN(C)C)n(C)c1` came in with a Binding activity of 0.3 µM.
